Here are results for 42 compounds from patent US20070270418A1, “Inhibitors of P38 and Methods of Using the Same” (priority 2003, published 2007).

Test [1] concerns TNFα release from THP-1 cells. Briefly: TNFα release from LPS-stimulated THP-1 cells. It is filed as cell-based. The following applies: Homo sapiens, THP-1, 18 h. An excerpt:
Compounds of the invention are screened for the ability to inhibit TNFα and IL-1β release from THP-1 cells stimulated with lipopolysaccharide (LPS) in vitro. The ability of compounds to inhibit TNFα and IL-1β release in this in vitro assay is correlated with the inhibition of p38 activity and TNFα and IL-1β expression in vivo, and is therefore an indicator of potential in vivo therapeutic activity (Lee J. C. et al, Ann. N.Y. Acad. Sci. 696: 149-170, 1993 and Nature, 372: 739-746, 1994).
THP-1 cells from ATCC (TIB202) are maintained at 37° C., 5% CO2 in RPMI 1640 media (MediaTech, Herndon, Va.) containing 4.5 g/L glucose, supplemented with 10% fetal bovine serum, 1% penicillin/streptomycin and 50 μM β-mercaptoethanol.
Test compounds are initially dissolved in RPMI media with 1% DMSO (v/v). Compounds are then serially diluted in RPMI media for all subsequent dilutions. The assay is performed under sterile conditions. THP-1 cells at a culture density of 6-8×10^5 cells/ml are collected and resuspended in the RPMI media at 10^6 cells/ml. 100 μl of resuspended cells are added to each well, which contain 100 μl of a test compound. Test compounds are prepared at twice the final concentration. Final DMSO concentration is no more than 0.5% (v/v). Cells are preincubated with compound for 30 minutes at 37° C., 5% CO2 prior to stimulation with lipopolysaccharide (LPS) (Sigma L-2880, 4 mg/ml stock in PBS). The final LPS concentration in each well is 10 or 30 μg/ml for TNFα and IL-1β release, respectively. Unstimulated control cell suspensions receive PBS vehicle only. Cell mixtures are incubated for 18 or 48 hours for TNFα and IL-1β release, respectively. 150 μl of supernatants are taken and transferred to a fresh plate and stored at −20° C. until further analysis.

The next test has as its target T1, p38α (Homo sapiens, UniProt Q16539).
T1 construct: p38 MAP Kinases are recombinant human full-length proteins with an amino-terminal GST fusion; GST (N); purchased Upstate (Charlottesville, Va.); host or cells: E. coli
Briefly: p38 MAP Kinase assay, ATF2 phosphorylation (ELISA). It is filed as biochemical. The settings on record: 40 μM ATP. In outline:
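Recombinant full-length GST-tagged human p38α (6 ng) pre-incubated 15 min at room temperature with compound, then reacted 30 min at 37° C with 40 μM ATP and 1.25 μM GST-ATF2 (aa 19-96) in HEPES pH 7.5/MgCl2 buffer. EDTA stop; ATF2 Thr69 phosphorylation measured by anti-phospho-ATF2 ELISA at 450 nm.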

[2] abbreviates: LPS 10 μg/ml, 18 hours, read-out: TNFα (THP-1) IC50.
[3] abbreviates: read-out: TNFα (THP-1) IC50 (nM).

Read-outs that look alike come from different tables or passages of the source.

T1 sequence (Q16539 whole entry, the tested form may be a part): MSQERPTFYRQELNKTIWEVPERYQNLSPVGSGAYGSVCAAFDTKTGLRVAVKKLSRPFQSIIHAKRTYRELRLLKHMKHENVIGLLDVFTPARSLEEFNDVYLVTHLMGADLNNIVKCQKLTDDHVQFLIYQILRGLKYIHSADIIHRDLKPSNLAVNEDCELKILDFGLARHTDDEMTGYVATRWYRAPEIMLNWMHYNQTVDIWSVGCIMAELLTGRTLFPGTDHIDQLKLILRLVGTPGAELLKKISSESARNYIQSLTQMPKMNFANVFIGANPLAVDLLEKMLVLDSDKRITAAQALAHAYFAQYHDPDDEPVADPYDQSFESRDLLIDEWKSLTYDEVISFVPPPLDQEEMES

With `OC1(CNc2nccc(-c3c(-c4ccc(F)cc4)nc4sccn34)n2)CCCCC1` [CCL], the IC50 (usually the concentration that gives 50% inhibition) was determined as 15.5 nM in test [1] (setting [2]) and 0.0272 µM on p38α.
For the compound `CC(C)[C@@H](CO)Nc1nccc(-c2c(-c3ccc(F)c(F)c3)nc3sccn23)n1` [CCVII], the IC50 was 43.4 nM in test [1] (setting [2]) and 0.191 µM against p38α.
The corresponding values for `FC(F)(F)c1cccc(-c2nc3occn3c2-c2ccnc(N[C@@H]3CN4CCC3CC4)n2)c1` [CCXCIII] are 172 nM and 0.0049 µM.
As for `Cc1ccccc1-c1nc2occn2c1-c1ccnc(N[C@@H]2CN3CCC2CC3)n1` [CCXCII], the IC50 in test [1] (setting [3]) was determined as 47.8 nM; at p38α, 0.0163 µM.
`FC(F)(F)c1cccc(-c2nc3occn3c2-c2ccnc(N[C@H]3CN4CCC3CC4)n2)c1` [CCXCIV]: the figures for the IC50 (in test [1] (setting [2]); at p38α) were 90 nM and 0.0164 µM, respectively.
`CN(C)CC(C)(C)CNc1nccc(-c2c(-c3ccc(F)cc3F)nc3occn23)n1` [CCXCIX]: the 50% inhibitory concentration (IC50) in test [1] (setting [2]) was found to be 17.8 nM; against p38α, 0.0061 µM.
As to `Clc1ccccc1-c1nc2occn2c1-c1ccnc(N[C@@H]2CN3CCC2CC3)n1` [CCXCI], the IC50 in test [1] (setting [3]) stood at 77 nM; on p38α, 0.0112 µM.
Consider `Cc1ccccc1-c1nc2occn2c1-c1ccnc(NCC(C)(C)CN(C)C)n1` [CCXCVIII], for which the IC50 was 85.1 nM in test [1] (setting [2]) and 0.0522 µM on p38α.
Turning to `CN1[C@@H]2CC[C@H]1C[C@@H](Nc1nccc(-c3c(-c4ccccc4Cl)nc4occn34)n1)C2` [CCXCVII], the IC50 in test [1] (setting [3]) is 24.4 nM; on p38α, 0.0068 µM.
The corresponding values for `CN1[C@@H]2CC[C@H]1C[C@@H](Nc1nccc(-c3c(-c4ccc(F)cc4Cl)nc4occn34)n1)C2` [CCXCVI] are 15.5 nM and 0.0036 µM.
For the compound `Fc1ccc(-c2nc3occn3c2-c2ccnc(N[C@H]3CN4CCC3CC4)n2)c(Cl)c1` [CCXCV], the IC50 was 8.7 nM in test [1] (setting [2]) and 0.0097 µM at p38α.
For `CN(C)CC(C)(C)CNc1nccc(-c2c(-c3ccc(F)cc3Cl)nc3occn23)n1` [CCXCX] the same measures were 78.2 nM and 0.0203 µM.
Take `Fc1ccc(-c2nc3occn3c2-c2ccnc(N[C@@H]3CN4CCC3CC4)n2)c(Cl)c1` [CCXC]: the IC50 was determined as 72 nM in test [1] (setting [2]) and 0.0068 µM at p38α.
For `Fc1ccc(-c2nc3sccn3c2-c2ccnc(NCC3CC3)n2)cc1` [CCXIII] the same measures were 5.63 nM and 0.0133 µM.
The corresponding values for `Oc1ccc(C(O)CNc2nccc(-c3c(-c4ccc(F)cc4)nc4sccn34)n2)cc1` (stereo not drawn) [CCXII] are 24.1 nM and 0.00881 µM.
As for `C[C@H](O)CNc1nccc(-c2c(-c3ccc(F)cc3)nc3sccn23)n1` [CCXIV], the IC50 in test [1] (setting [2]) was found to be 5.03 nM; against p38α, 0.0121 µM.
Take `CC[C@@H](CO)Nc1nccc(-c2c(-c3ccc(F)cc3)nc3sccn23)n1` [CCXIX]: the IC50 in test [1] (setting [2]) turned out to be 6.84 nM; at p38α it was 0.00303 µM.
With `Cc1ccc(-c2nc3sccn3c2-c2ccnc(N[C@H](CO)C(C)C)n2)cc1` [CCXI], the results for the IC50 (in test [1] (setting [2]); on p38α) were 58.9 nM and 0.147 µM, respectively.
Turning to `Nc1ccc(CCNc2nccc(-c3c(-c4ccc(F)cc4)nc4sccn34)n2)cc1` [CCXLIII], the IC50 in test [1] (setting [2]) worked out at 19.5 nM; at p38α, 0.00219 µM.
For `CCC(O)CNc1nccc(-c2c(-c3ccc(F)cc3)nc3sccn23)n1` (stereo not drawn) [CCXLII] the same measures were 3.83 nM and 0.00328 µM.
For `CN(C)CC(C)(C)CNc1nccc(-c2c(-c3ccc(F)cc3)nc3sccn23)n1` [CCXLIV] the same measures were 5.98 nM and 0.0114 µM.
Regarding `Fc1ccc(-c2nc3sccn3c2-c2ccnc(NCCN3CCOCC3)n2)cc1` [CCXLIX], the IC50 in test [1] (setting [2]) came out at 20.3 nM; against p38α, 0.0316 µM.
As to `CC(C)(CO)Nc1nccc(-c2c(-c3ccc(F)cc3)nc3sccn23)n1` [CCXLI], the IC50 stood at 5.18 nM in test [1] (setting [2]) and 0.00281 µM against p38α.
`OC1(CNc2nccc(-c3c(-c4ccc(F)cc4)nc4sccn34)n2)CCCc2ccccc21` (stereo not drawn) [CCXLVIII]: the IC50 was found to be 20.8 nM in test [1] (setting [2]) and 0.00839 µM against p38α.
The corresponding values for `Fc1ccc(CCNc2nccc(-c3c(-c4ccc(F)cc4)nc4sccn34)n2)cc1` [CCXLVII] are 33.2 nM and 0.00484 µM.
In the case of `Oc1cccc(C(O)CNc2nccc(-c3c(-c4ccc(F)cc4)nc4sccn34)n2)c1` (stereo not drawn) [CCXLVI], the IC50 amounted to 23.9 nM in test [1] (setting [2]) and 0.00306 µM at p38α.
The corresponding values for `Fc1ccc(-c2nc3sccn3c2-c2ccnc(NCCN3CCCCC3)n2)cc1` [CCXLV] are 14.2 nM and 0.0821 µM.
For `Fc1ccc(-c2nc3sccn3c2-c2ccnc(NCc3nc4ccccc4[nH]3)n2)cc1` [CCXL] the same measures were 3300 nM and 0.135 µM.
With `Fc1ccc(-c2nc3sccn3c2-c2ccnc(NCCc3ccncc3)n2)cc1` [CCXVIII], the IC50 was 4.46 nM in test [1] (setting [2]) and 0.00587 µM against p38α.
For `CCOC(=O)N1CCC(Nc2nccc(-c3c(-c4ccc(F)cc4)nc4sccn34)n2)CC1` [CCXVII] the same measures were 7.84 nM and 0.00119 µM.
`CCCNc1nccc(-c2c(-c3ccc(F)cc3)nc3sccn23)n1` [CCXVI]: the values for the IC50 (in test [1] (setting [2]); against p38α) were 5.15 nM and 0.00468 µM, respectively.
Turning to `COCC(C)Nc1nccc(-c2c(-c3ccc(F)cc3)nc3sccn23)n1` (stereo not drawn) [CCXV], the IC50 was determined as 8.58 nM in test [1] (setting [2]) and 0.00232 µM on p38α.
For `CCCC[C@@H](CO)Nc1nccc(-c2c(-c3ccc(F)cc3)nc3sccn23)n1` [CCXXII] the same measures were 49.6 nM and 0.00545 µM.
For `O[C@H]1CC[C@H](Nc2nccc(-c3c(-c4ccc(F)cc4)nc4sccn34)n2)CC1` [CCXXI] the same measures were 5.56 nM and 0.00157 µM.
Turning to `CC(C)(C)OC(=O)N1CCC(Nc2nccc(-c3c(-c4ccc(F)cc4)nc4sccn34)n2)CC1` [CCXXXIII, 4-{4-[6-(4-fluorophenyl)-imidazo[2,1-b]thiazol-5-yl]-pyrimidin-2-ylamino}-piperidine-1-carboxylic acid tert-butyl ester], the IC50 in test [1] (setting [2]) came to 76.9 nM; at p38α it was 0.00224 µM.
Turning to `CC(C)[C@H](CO)Nc1nccc(-c2c(-c3ccc(F)cc3)nc3sccn23)n1` [CCXXXII], the IC50 in test [1] (setting [2]) came out at 11.1 nM; against p38α, 0.00206 µM.
In the case of `Oc1ccc(CCNc2nccc(-c3c(-c4ccc(F)cc4)nc4sccn34)n2)cc1` [CCXXXIX], the IC50 was 21 nM in test [1] (setting [2]) and 0.00582 µM at p38α.
As to `CC(C)[C@@H](CO)Nc1nccc(-c2c(-c3ccc(F)cc3)nc3sccn23)n1` [CCXXXI], the values for the IC50 (in test [1] (setting [2]); on p38α) were 5.67 nM and 0.00113 µM, respectively.
For `CC(C)(C)OC(=O)N1CCC(CNc2nccc(-c3c(-c4ccc(F)cc4)nc4sccn34)n2)CC1` [CCXXXVIII], the IC50 in test [1] (setting [2]) came to 162 nM; against p38α, 0.0876 µM.
The corresponding values for `CC(C)(C)OC(=O)N1CCCCC1CNc1nccc(-c2c(-c3ccc(F)cc3)nc3sccn23)n1` (stereo not drawn) [CCXXXVII] are 113 nM and 0.107 µM.
Consider `CC(C)(C)OC(=O)N1CCCC(CNc2nccc(-c3c(-c4ccc(F)cc4)nc4sccn34)n2)C1` (stereo not drawn) [CCXXXVI], for which the IC50 came to 162 nM in test [1] (setting [2]) and 0.0818 µM on p38α.
The corresponding values for `CC[C@H](CO)Nc1nccc(-c2c(-c3ccc(F)cc3)nc3sccn23)n1` [CCXXXV] are 2.95 nM and 0.00208 µM.
